Experimental data from patent US20090082368A1, “METHODS OF MODULATING NEUROTROPHIN-MEDIATED ACTIVITY” (PainCeptor Pharma Corporation, priority 2007, published 2009).
Like-named read-outs stand apart in the source and are kept apart here.

What was measured:
[1] = tested on: NGF receptors on PC12 cells (TrkA+p75); assay: NGF binding (125I-NGF) using PC12 cells; design: species or system rat
Protocol: NGF binding was evaluated using methods familiar to those who are skilled in the art. Briefly, cells expressing one or both NGF receptors (PC12: TrkA+p75; A875: p75 alone; HEK/CHO_trkA: TrkA alone) were harvested by replacing the medium with the cell dissociation buffer (Amersham) and incubating at 37° C. for 15 min. […] For most compounds, multiple dose-response curves were generated.
The IC50 data shown in Tables A-J were acquired using the procedure described herein using PC12 cells.

[2] = tested on: spontaneous pain evoked by intraplantar injection of formalin in the rat; assay: Formalin model of acute tonic pain; type: in vivo; settings: for pain intensity as evaluated by the licking behavior: s.c. 30 min prior to formalin, 2E 0.1-10 mg/kg, 1G 0.4-20 mg/kg, 47G 10-300 μmol/kg, 50G 30 and 100 μmol/kg
Protocol: Male Sprague-Dawley rats are housed together in groups of three animals under standard conditions with unrestricted access to food and water. All experiments are conducted according to the ethical guidelines for investigations of experimental pain in conscious animals (Zimmerman, 1983).
Assessment of formalin-induced flinching behavior in normal, uninjured rats (body weight 200-300 g) is made after formalin (2.5% in saline, 50-100 μl, s.c.) is injected into the plantar surface of the hindpaw using a 27G needle. Rats are pretreated with test compounds either administered intravenously (IV), by subcutaneous injection (SC) or by orally (PO).
Nociceptive behavior is determined manually every 5 min by measuring the amount of time spent in each of four behavioral categories: 0, treatment of the injected hindpaw is indistinguishable from that of the contralateral paw; 1, the injected paw has little or no weight placed on it; 2, the injected paw is elevated and is not in contact with any surface; 3, the injected paw is licked, bitten, or shaken. A weighted nociceptive score, ranging from 0 to 3 is calculated by multiplying the time spent in each category by the category weight, summing these products, and dividing by the total time for each 5 min block of time. (Coderre et al., Pain 1993; 54: 43). On the basis of the resulting response patterns, […] of nociceptive behavior are identified and scored: first phase (P1; 0-5 min), interphase (Int; 6-15 min), second phase (P2; […]), phase 2A (P2A; 16-40 min) and phase 2B (P2B; 41-60 min).
Statistical analysis is performed using the Prism™ 4.01 software package (GraphPad, San Diego, Calif., USA). The difference in response levels between treatment groups and control vehicle group is analyzed using an ANOVA followed by Bonferroni's method for post-hoc pair-wise comparisons. A p value<0.05 is considered to be significant.

PC12 cells = assay: Inhibition of NGF-induced neurite outgrowth; type: cell-based; settings: Rattus norvegicus, PC-12, 96 h, Table 3, 4 days exposure to NGF
Protocol: This assay is run as a further functional marker of NGF antagonism and takes advantage of the differentiation of PC12 cells (neurite outgrowth) induced by NGF. Cultures of PC12 cells are grown on Terasaki plates pre-coated with poly-D-lysine. Cells are exposed to NGF (1-50 (preferably 5) ng/ml) to induce neurite outgrowth as described elsewhere [LA Greene & AS Tischler, Establishment of a noradrenergic clonal line of rat adrenal pheochromocytoma cells which respond to nerve growth factor, Proc Natl Acad Sci USA. 1976 July; 73(7): 2424-2428]. In addition to NGF, cells are exposed to varying concentration of the compounds or vehicle. Following 4 days of exposure to NGF in the presence or absence of compound, neurite outgrowth is quantified. A neurite is scored if its caliber from origin to terminal is approximately the same and the length is equal to or greater than 1.5 the cell body diameter. The number of neurite bearing cells per total number of viable cells is calculated for each condition; the number of cells with neurites in the presence of NGF (without compound exposure) is considered to represent maximal (100%) outgrowth, to which the inhibitory effect of compounds of the invention on NGF-induced outgrowth is compared.

[3] = tested on: NGF-induced ERK phosphorylation; assay: Inhibition of NGF-induced Erk 1/2 phosphorylation (pERK); type: cell-based; settings: Rattus norvegicus, Table 2
Protocol: This assay is useful for establishing that the compounds of the invention are functional NGF antagonists, not receptor agonists (an agonist could conceivably block NGF binding but actually activate the receptor). Erk 1/2 is a kinase activated down stream of TrkA and is a well studied member of the NGF-induced signal transduction cascade.
PC12 cells expressing TrkA and p75 are acutely exposed to 1 ng/mL NGF (15 min; 37° C.; 5% CO2) that is pre-incubated (30 min; room temperature) with or without the compounds. Cells are lysed in Laemmli sample buffer (for SDS-PAGE) or a lysis buffer containing Triton X-100 (for ELISA). Following SDS-PAGE, proteins are electroblotted onto nitrocellulose and immunoprobed for phosphorylated Erk 1 and 2. Blocking and primary antibody incubations of immunoblots are performed in Tris-buffered saline-Tween (10 mM Tris, pH 8.0, 150 mM NaCl, and 0.2% Tween 20) supplemented with 5% (w/v) bovine serum albumin (BSA); secondary antibody incubations are performed in 5% (w/v) dried skim milk powder. Immunoreactive bands are detected by chemiluminescence.
A quantitative method to detect phosphorylated Erk 1/2 by immunofluorescence is also used. Neuroscreen-1 cells are grown in a 96 well plate. NGF preincubated with or without the compounds for 30 minutes, is added to the cells for 5 minutes at 37° C. Cells are then fixed and stained with an antibody against phosphor-ERK 1/2. A fluorescently labeled secondary antibody is used to show the presence of phosphorylated ERK 1/2. Quantitative results are generated by photographing the wells with light of the appropriate wavelength, followed by software based image analysis.

[4] = tested on: hyperalgesia from acute paw inflammation caused by intraplantar λ-carrageenan; assay: Carrageenan model (inflammatory pain); type: in vivo; settings: rat, SC 10 min pre- and 3 h post-carrageenan, tested 4 h post; 1G 20 mg/kg, 50G 2×105 mg/kg
Protocol: Acute inflammatory hyperalgesia is induced in rats by unilateral injection of 150 μl of a 3% solution of λ-carrageenan into the plantar surface of the left hind paw 3-5 hours prior to testing. Thermal hyperalgesia, mechanical allodynia, mechanical hyperalgesia, weight bearing asymmetry and paw inflammation are determined. Rats are pretreated with test compounds either administered intravenously (IV), by subcutaneous injection (SC) or by oral gavage (PO). Thermal nociceptive thresholds are determined according to the method described elsewhere (Hargreaves et al., 1988). Briefly, through the glass surface, a radiant heat source (8V, 50 W projector bulb) is focused onto the plantar surface of the hind paw. The rat's paw-withdrawal latency to this stimulus is recorded to the nearest 0.1 s. Each latency score is an average of three trials, which are separated by at least 5 min. In all rats, both the injured and uninjured hind paws are similarly tested, allowing direct comparisons between inflamed and non-inflamed paws. Mechanical hyperalgesia is determined by measuring the difference of withdrawal thresholds in response to increasing pressure in the inflamed vs contralateral paw using the Randall-Sellito Paw pressure meter (IITC Life Science) (Randall L O and Sellito J J., 1957). Briefly, rats are held in a contention jacket suspended by a stand and allowed to acclimate for 10 min. […]

[5] = Table 2, read-out: NGF Binding Assay IC50
[6] = Table J (Formula VIII), NGF binding, PC12 cells, read-out: IC50

IC50 ([1]; Table 3, read-out: NGF Binding Assay IC50) [µM] | SMILES | IC50 [1, 5] [µM] | IC50 [1, 6] [µM] | pain intensity as evaluated by the licking behavior [2] | ED50 ([2]; sc, given 30 min prior to formalin injection, read-out: ED50, number of licking and biting episodes in phase IIa of the formalin test) [µmol/kg] | IC50 (PC12 cells) [µM] | IC50 [3] [µM] | mechanical hyperalgesia (Randall-Sellito) [4] | thermal hyperalgesia (Hargreaves' assay) [4]
< 10 | Cn1nnnc1-c1cc2c3c(cccc3c1)C(=O)N(CCCC(=O)O)C2=O [Compound 47G, 4-[5-(1-Methyl-1H-tetrazol-5-yl)-1,3-dioxo-1H-benzo[de]isoquinolin-2(3H)-yl]butanoic acid] | < 10 | < 10 | dose-dependent reduction of the pain intensity | ~100 | 0.1 to 5 | 15 to 25 | – | –
– | O=C(O)CCCN1C(=O)c2cccc3cc(-n4cnnn4)cc(c23)C1=O [Compound 50G, 4-[1,3-Dioxo-5-(1H-tetrazol-1-yl)-1H-benzo[de]isoquinolin-2(3H)-yl]butanoic acid] | < 10 | < 10 | dose-dependent reduction of the pain intensity | – | – | 5 to 15 | marginally improving the mechanical hyperalgesia | significantly reversed the thermal hyperalgesia
